# According to ChEMBL document CHEMBL5252560 (Bioorg Med Chem Lett, 2023):
# pIC50: −log10 of the molar value.
# Legend:
# Format in all cases: functional, cell-based
# A549 = assay: Antiproliferative activity against human A549 cells assessed as cell growth inhibition
# U-937 = assay: Antiproliferative activity against human U-937 cells assessed as cell growth inhibition
# HepG2 = assay: Antiproliferative activity against human HepG2 cells assessed as cell growth inhibition
# Y79 = assay: Antiproliferative activity against human Y79 cells assessed as cell growth inhibition
Structure (SMILES),pIC50 (A549),pIC50 (U-937),pIC50 (HepG2),pIC50 (Y79)
COc1cc(C2=NNC(c3ccc4c(c3)CCO4)C2)cc(OC)c1OC (stereo not drawn),< 5.00,< 5.00,5.16,< 5.00
COc1cc(C(/C=C/c2ccc3oc4ccccc4c3c2)=N/O)cc(OC)c1OC,< 5.00,5.03,< 5.00,< 5.00
COc1cc(C2=NOC(c3cc(OC)c(OC)c(OC)c3)C2)cc(OC)c1OC (stereo not drawn),< 5.00,< 5.00,< 5.00,< 5.00
COc1cc(C2=NOC(c3ccc4c(c3)CCO4)C2)cc(OC)c1OC (stereo not drawn),< 5.00,< 5.00,< 5.00,< 5.00
COc1cc(C2=NNC(c3cccc4c3OCO4)C2)cc(OC)c1OC (stereo not drawn),< 5.00,< 5.00,< 5.00,< 5.00
CCn1c2ccccc2c2cc(C3CC(c4cc(OC)c(OC)c(OC)c4)=NN3)ccc21 (stereo not drawn),< 5.00,5.71,5.63,< 5.00
COc1cc(C(/C=C/c2ccc3sc4ccccc4c3c2)=N/O)cc(OC)c1OC,< 5.00,5.86,6.13,< 5.00
COc1cc(C(/C=C/c2ccc3ccccc3c2)=N/O)cc(OC)c1OC,< 5.00,< 5.13,6.36,< 5.00
COc1cc(C2=NOC(c3ccc4c(c3)OCCO4)C2)cc(OC)c1OC (stereo not drawn),< 5.00,< 5.00,< 5.00,< 5.00
COc1cc(C2=NNC(c3ccc4occc4c3)C2)cc(OC)c1OC (stereo not drawn),< 5.00,< 5.00,< 5.00,< 5.00
COC(=O)c1ccc2c(C3CC(c4cc(OC)c(OC)c(OC)c4)=NN3)c[nH]c2c1 (stereo not drawn),< 5.00,5.13,5.20,< 5.00
COc1cc(-c2cc(-c3cccc4c3OCO4)on2)cc(OC)c1OC,< 5.00,< 5.00,< 5.00,< 5.00
COc1cc(C2=NNC(c3c[nH]c4cc(Br)ccc34)C2)cc(OC)c1OC (stereo not drawn),5.47,5.91,5.34,< 5.00
COc1cc(-c2cc(-c3ccc4ccccc4c3)on2)cc(OC)c1OC,< 5.00,< 5.00,< 5.00,< 5.00
COc1cc(C2=NNC(c3ccc4cc[nH]c4c3)C2)cc(OC)c1OC (stereo not drawn),< 5.00,< 5.00,< 5.00,< 5.00
COc1cc(C2=NNC(c3ccc4c(c3)OCCO4)C2)cc(OC)c1OC (stereo not drawn),< 5.00,< 5.00,< 5.00,< 5.00
COc1cc(C2=NNC(c3ccc4[nH]ccc4c3)C2)cc(OC)c1OC (stereo not drawn),5.55,6.02,5.47,< 5.00
COc1cc(C(/C=C/c2cccc3ccccc23)=N/O)cc(OC)c1OC,< 5.00,5.00,6.22,< 5.00
COc1cc(C(/C=C/c2ccc3ncccc3c2)=N/O)cc(OC)c1OC,6.35,6.32,6.33,< 5.00
CCn1c2ccccc2c2cc(/C=C/C(=N\O)c3cc(OC)c(OC)c(OC)c3)ccc21,5.71,5.28,6.16,< 5.00
COc1cc(C2=NNC(c3cc4ccccc4s3)C2)cc(OC)c1OC (stereo not drawn),< 5.00,< 5.00,< 5.00,< 5.00
COc1cc(C2=NNC(c3ccc4ncccc4c3)C2)cc(OC)c1OC (stereo not drawn),< 5.00,< 5.00,< 5.00,< 5.00
COc1cc(C(/C=C/c2cc3ccccc3s2)=N/O)cc(OC)c1OC,< 5.00,6.55,6.31,< 5.00
COc1cc(C(/C=C/c2ccc3occc3c2)=N/O)cc(OC)c1OC,< 5.00,6.06,6.75,6.43
COc1cc(C2=NNC(c3ccc4sc5ccccc5c4c3)C2)cc(OC)c1OC (stereo not drawn),< 5.00,< 5.00,< 5.00,< 5.00
COc1cc(-c2cc(-c3ccc4c(c3)OCCO4)on2)cc(OC)c1OC,5.23,5.20,5.08,< 5.00

# Now from value to compound, other results behind:
pIC50 (A549),pIC50 (U-937),pIC50 (HepG2),Structure (SMILES),pIC50 (Y79)
< 5.00,6.04,< 5.00,COc1cc(-c2cc(-c3cccc4ccccc34)on2)cc(OC)c1OC,< 5.00
< 5.00,< 5.00,< 5.00,COc1cc(C2=NOC(c3cccc4ccccc34)C2)cc(OC)c1OC (stereo not drawn),< 5.00
< 5.00,< 5.00,< 5.00,COc1cc(C2=NOC(c3cccc4c3OCO4)C2)cc(OC)c1OC (stereo not drawn),< 5.00
< 5.00,5.47,5.25,COc1cc(C2=NOC(c3c[nH]c4ccccc34)C2)cc(OC)c1OC (stereo not drawn),< 5.00
< 5.00,6.63,5.78,COc1cc(C2=NOC(c3ccc4sc5ccccc5c4c3)C2)cc(OC)c1OC (stereo not drawn),< 5.00
< 5.00,< 5.00,< 5.00,COc1cc(C2=NOC(c3cc4ccccc4o3)C2)cc(OC)c1OC (stereo not drawn),< 5.00
< 5.00,< 5.00,< 5.00,COc1cc(C2=NNC(c3coc4ccccc34)C2)cc(OC)c1OC (stereo not drawn),< 5.00
< 5.00,< 5.00,< 5.00,COc1cc(C2=NOC(c3ccc4ncccc4c3)C2)cc(OC)c1OC (stereo not drawn),< 5.00
< 5.00,< 5.00,< 5.00,COc1cc(C2=NOC(c3csc4ccccc34)C2)cc(OC)c1OC (stereo not drawn),< 5.00
< 5.00,< 5.00,< 5.00,COc1cc(C2=NOC(c3ccc4oc5ccccc5c4c3)C2)cc(OC)c1OC (stereo not drawn),< 5.00
< 5.00,5.81,5.36,CCn1c2ccccc2c2cc(C3CC(c4cc(OC)c(OC)c(OC)c4)=NO3)ccc21 (stereo not drawn),< 5.00
< 5.00,< 5.00,< 5.00,COC(=O)c1ccc2c(C3CC(c4cc(OC)c(OC)c(OC)c4)=NO3)c[nH]c2c1 (stereo not drawn),< 5.00
< 5.00,< 5.00,< 5.00,COc1cc(C2=NOC(c3ccc4occc4c3)C2)cc(OC)c1OC (stereo not drawn),< 5.00
< 5.00,< 5.00,5.20,COc1cc(C2=NOC(c3ccc4ccccc4c3)C2)cc(OC)c1OC (stereo not drawn),< 5.00
< 5.00,< 5.00,< 5.00,COc1cc(C2=NNC(c3csc4ccccc34)C2)cc(OC)c1OC (stereo not drawn),< 5.00
< 5.00,< 5.00,< 5.00,COc1cc(C2=NNC(c3cc4ccccc4o3)C2)cc(OC)c1OC (stereo not drawn),< 5.00
< 5.00,< 5.00,< 5.00,COc1cc(C2=NNC(c3ccc4ccccc4c3)C2)cc(OC)c1OC (stereo not drawn),< 5.00
< 5.00,5.26,< 5.00,COc1cc(C2=NOC(c3ccc4[nH]ccc4c3)C2)cc(OC)c1OC (stereo not drawn),< 5.00
< 5.00,< 5.00,< 5.00,COc1cc(C2=NNC(c3ccc4oc5ccccc5c4c3)C2)cc(OC)c1OC (stereo not drawn),< 5.00
< 5.00,< 5.00,< 5.00,COc1cc(C2=NNC(c3cccc4ccccc34)C2)cc(OC)c1OC (stereo not drawn),< 5.00
5.15,5.46,5.36,COc1cc(C2=NNC(c3c[nH]c4ccccc34)C2)cc(OC)c1OC (stereo not drawn),< 5.00
